Read-outs that look alike come from different tables or passages of the source.
Experiments:
human RORγ = target: T1, human RORγ (Homo sapiens, UniProt P51449); experiment: Luciferase reporter gene assay of inhibitory effect against RORγ transcriptional activity (GAL4-hRORγ plasmid in CHO cells); assay type: cell-based
T1 construct: human, NM_005060.3 and from Ser253 to Lys518; expressed in transfected cells; host or cells: CHO cells (transient co-transfection with pG5-Luc reporter)
T1 sequence (P51449 253-518): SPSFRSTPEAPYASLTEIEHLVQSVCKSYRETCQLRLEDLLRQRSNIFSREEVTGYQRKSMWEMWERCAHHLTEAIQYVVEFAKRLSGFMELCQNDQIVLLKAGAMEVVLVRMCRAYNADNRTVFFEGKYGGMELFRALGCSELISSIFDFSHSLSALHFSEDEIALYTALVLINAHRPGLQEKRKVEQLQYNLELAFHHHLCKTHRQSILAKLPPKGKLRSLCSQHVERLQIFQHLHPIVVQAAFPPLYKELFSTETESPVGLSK
Method: (§1) In vitro assay of inhibitory effect against RORγ transcriptional activity
(§2) Inhibitory effect of test article on transcriptional activity of RORγ was measured by means of the following luciferase reporter gene assay.
(§3) A cDNA encoding human and mouse RORγ ligand binding domain (LBD) were obtained based on the reported sequences (Genebank accession number and sequence: human, NM_005060.3 and from Ser253 to Lys518; mouse, NM_011281.2 and from Ile251 to Lys516).
(§4) The cDNA of human RORγ or mouse RORγ was inserted into pFA-CMV vector (Strategene), which expresses GAL4-DNA binding domain fusion protein.
(§5) The resulting plasmids are hereinafter referred to as GAL4-hRORγ plasmid and GAL4-mRORγ plasmid, respectively.
(§6) Human or mouse GAL4-RORγ plasmid was transiently co-transfected into Chinese hamster ovary cells (CHO cells) with […] plasmid, a reporter plasmid expressing firefly luciferase depending on GAL4.
(§7) TransIT CHO transfection reagent (Mirus) was used to co-transfect human or mouse GAL4-RORγ plasmid into CHO cells with pG5-Luc plasmid.
(§8) One day before the assay, CHO cells were suspended in HAM F-12 Nutrient medium containing 10 v/v % fetal bovine serum and seeded at 6×10^6 cells per 175 cm^2 cell culture flask.
(§9) Fifty four micro litters of Transit-CHO reagent was added into a 15 ml tube containing 1.16 ml of HAM F-12 Nutrient medium without fetal bovine serum and incubated at room temperature for 10 min.
A total 36 uL plasmid solution containing the GAL4-hRORγ plasmid (400 ng), pG5-Luc plasmid (9000 ng) and pcDNA3 plasmid (8600 ng) were added into the tube and mixed gently.
(§10) The mixture was incubated at room temperature for 10 min.
(§11) Nine micro litters of CHO Mojo Reagent was then added into each tube and mixed gently. The mixture was incubated at room temperature for 10 min.
(§12) The resultant transfection reagent was applied to the cell culture.
(§13) After incubation at 37° C., 5% CO2 for 4 hr, the transfected CHO cells were harvested by a trypsin treatment.
(§14) The collected cells were resuspended in HAM F-12 Nutrient medium supplemented with 10 v/v % fetal bovine serum and plated into a 384-well-white plate at 8,000 cells/50 uL/well.
(§15) The plate was incubated at room temperature for 1 hour and then further incubated at 37° C., 5% CO2 for 3 hours.
(§16) The test articles were dissolved in dimethylsulfoxide (DMSO) to obtain a concentration of 10 mmol/L. The resulting solution was diluted with the medium just before use and added to the cells in the plate to prepare 8 different concentrations of the test article.
(§17) The final concentration of DMSO was 0.1 v/v % After the addition of the test articles, the cells were incubated at 37° C., 5% CO2 for 2 days.
(§18) RORγ transcriptional activity was detected as the intracellular luciferase activity using SteadyLite HTS Reporter Gene Assay System (Perkin Elmer).
(§19) StedyLite Reagent was diluted five-fold into a solution containing 10 mM Tricine, 0.2% w/v BSA, 0.02% v/v Tween-20 to obtain the luciferase substrate solution.
(§20) After the measurement of the cell viability using Resazurin, the culture media in the 384 well-plate were removed. Then the Luc substrate solution was added into each well.
(§21) After the incubation at room temperature for 10 minutes, luminescence of each well was measured by a microplate reader.
(§22) The luciferase activity derived from the luminescence count in the vehicle-control well treated with 0.1% DMSO alone was defined as 100%, and the luciferase activity in the test article was calculated as a percentage (%-of-control) based on the value of the vehicle-control.
(§23) EC50 value of test article was calculated by curve fitting with GraphPad Prism.
(§24) The luminescence counts at the concentration of the test article where the cytotoxicity was observed were excluded from the data analysis.

mouse RORγ = target: T2, mouse RORγ (Mus musculus, UniProt P51450); experiment: Luciferase reporter gene assay of inhibitory effect against RORγ transcriptional activity (GAL4-mRORγ plasmid in CHO cells); assay type: cell-based
T2 construct: mouse, NM_011281.2 and from Ile251 to Lys516; expressed in transfected cells; host or cells: CHO cells (transient co-transfection with pG5-Luc reporter)
T2 sequence (P51450 251-516): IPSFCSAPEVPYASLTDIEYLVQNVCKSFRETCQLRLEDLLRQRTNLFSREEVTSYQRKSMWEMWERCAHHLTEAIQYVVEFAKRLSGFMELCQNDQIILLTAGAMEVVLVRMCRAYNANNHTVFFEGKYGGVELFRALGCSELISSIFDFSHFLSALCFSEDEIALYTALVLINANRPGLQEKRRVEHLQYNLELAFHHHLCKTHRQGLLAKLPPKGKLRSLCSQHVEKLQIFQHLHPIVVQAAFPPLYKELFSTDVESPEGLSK
Method: as §1, §2, §3, §4, §5, §6, §7, §8, §9, §10, §11, §12, §13, §14, §15, §16, §17, §18, §19, §20, §21, §22, §23, §24

| Compound | EC50 (human RORγ; read-out: LUC EC50 (μM) hRORg) | EC50 (mouse RORγ; read-out: LUC EC50 (μM) mRORg) | EC50 (human RORγ; read-out: LUC EC50 hRORg) | EC50 (mouse RORγ; read-out: LUC EC50 mRORg) |
| --- | --- | --- | --- | --- |
| Cc1ccc(NC(=O)C[C@H](CCC(=O)O)c2noc(-c3cc(CC(C)(C)C)on3)c2C2CC2)c(F)c1 [Example E-65] | < 3 µM | < 3 µM |  |  |
| Cc1ccc(NC(=O)[C@H]2C[C@@H](O)C[C@@H]2c2nnc([C@H]3C[C@@H](CC(C)C)C3)n2C2CC2)c(C)c1 [Example F-470] | < 3 µM | < 3 µM |  |  |
| CCn1c(C2Cc3ccccc3C2)nnc1[C@@H]1C[C@@H]1C(=O)Nc1cccc2ccccc12 (racemic) [Example F-27] | > 3 µM | < 3 µM |  |  |
| Cc1cc(F)ccc1NC(=O)[C@@H]1CC(F)(F)C[C@H]1c1nnc(-c2cc(CC(C)C)on2)n1C1CC1 [Example F-593] |  |  | > 3 µM | < 3 µM |
| COc1cc(F)ccc1CNC(=O)CCc1nnc(CCC(C)C)n1C1CC1 [Example F-229] | > 3 µM | > 3 µM |  |  |
| Cc1ccc(NC(=O)CCc2nnc([C@H]3C[C@@H](CC(C)(C)C)C3)n2C2CC2)c(C)c1 [Example F-426] | < 3 µM | < 3 µM |  |  |
| Cc1ccc(NC(=O)C[C@H](CCC(=O)O)c2noc(-c3cc(C4(C)CCCC4)on3)c2C2CC2)c(Cl)c1 [Example E-42] | < 3 µM | < 3 µM |  |  |
| CC(C)CCc1nnc(CCC(=O)Nc2ccccc2)n1C1CC1 [Example F-56] | > 3 µM | > 3 µM |  |  |
| COCc1ccc(NC(=O)CCc2nnc(CCC(C)C)n2C2CC2)c(C)c1 [Example F-136] | > 3 µM | > 3 µM |  |  |
| Cc1ccc(NC(=O)CCc2nnc(-c3ccc(O)cc3)n2C2CC2)c(C)c1 [Example F-442] | > 3 µM | > 3 µM |  |  |
| COC1C[C@@H](C(=O)Nc2ccc(C)cc2C)[C@H](c2nnc([C@H]3C[C@@H](CC(C)C)C3)n2C2CC2)C1 (single isomer, unassigned) [Example F-555] |  |  | > 3 µM | > 3 µM |
| C=CCC(CC(=O)NCc1ccc(C)cc1OC)c1nnc(CCC2CCCCC2)n1C1CC1 (racemic) [Example F-246] | < 3 µM | < 3 µM |  |  |
| Cc1ccc(NC(=O)C[C@H](CC(O)C(F)(F)F)c2nnc([C@H]3C[C@@H](CC(C)C)C3)n2C2CC2)c(C)c1 (single isomer, unassigned) [Example F-621] |  |  | < 3 µM | < 3 µM |
| Cc1ccc(NC(=O)C[C@H](CCC(=O)O)n2nnc([C@H]3C[C@@H](CC(C)(C)C)C3)c2C2CC2)c(Cl)c1 [Example F-682, (S)-5-(2-chloro-4-methyl-phenylcarbamoyl)-4-{5-cyclopropyl-4-[3-(2,2-dimethyl-propyl)-cyclobutyl]-[1,2,3]triazol-1-yl}pentanoic acid] |  |  | < 3 µM | < 3 µM |
| CC(=O)N(C)[C@@H](CC(=O)Nc1ccc(C)cc1C)c1nnc(CCCC(C)(C)C)n1C1CC1 [Example F-354] | < 3 µM | < 3 µM |  |  |
| Cc1ccc(NC(=O)C[C@H](CCC(=O)O)c2noc(-c3cc(CC(C)C)[nH]n3)c2C2CC2)c(F)c1 [Example E-07] | > 3 µM | > 3 µM |  |  |
| Cc1ccc(NC(=O)CCc2nnc(C3CC4(CCCC4)C3)n2C2CC2)c(C)c1 [Example F-420] | < 3 µM | < 3 µM |  |  |
| Cc1ccc(NC(=O)C[C@H](CCC(=O)O)c2noc(-c3cc(C4C(C)(C)C4(C)C)on3)c2C2CC2)c(Cl)c1 [Example E-44] | < 3 µM | < 3 µM |  |  |
| Cc1ccc(NC(=O)C[C@H](CCCC(=O)O)c2noc(-c3cc(CCC(C)C)on3)c2C2CC2)c(Cl)c1 [Example E-21] | < 3 µM | < 3 µM |  |  |

| Compound | EC50 (human RORγ; read-out: LUC EC50 (μM) hRORg) | EC50 (mouse RORγ; read-out: LUC EC50 (μM) mRORg) | EC50 (human RORγ; read-out: LUC EC50 hRORg) | EC50 (mouse RORγ; read-out: LUC EC50 mRORg) |
| --- | --- | --- | --- | --- |
| CCc1c(CCC(=O)Nc2cccc3ccccc23)noc1C1Cc2ccccc2C1 [Example F-14] | < 3 µM | < 3 µM |  |  |
| Cc1ccc(NC(=O)CC(CCN2C(=O)c3ccccc3C2=O)c2nnc(CCCC(C)C)n2C2CC2)c(C)c1 (racemic) [Example F-272] | < 3 µM | < 3 µM |  |  |
| CC(C)C[C@H]1C[C@@H](c2nnc([C@@H](CCO)CC(=O)NCc3ccc(Cl)cc3Cl)n2C2CC2)C1 [Example F-521] |  |  | < 3 µM | < 3 µM |
| COc1cc(C(F)(F)F)ccc1CNC(=O)CCc1nnc(CCC(C)C)n1C1CC1 [Example F-263] | < 3 µM | < 3 µM |  |  |
| COc1cc(C)ccc1CNC(=O)[C@H]1CN(C(C)=O)C[C@@H]1c1nnc(CCC2CCCCC2)n1C1CC1 (racemic) [Example F-173] | < 3 µM | < 3 µM |  |  |
| Cc1ccc(NC(=O)C[C@H](CCC(=O)O)c2noc(-c3noc(CC(C)C)n3)c2C2CC2)c(Cl)c1 [Example E-11] | < 3 µM | < 3 µM |  |  |
| CC(=O)N1C[C@H](C(=O)Nc2ccc(C)cc2C)[C@@H](c2nnc(CC3CC(C)(C)C3)n2C2CC2)C1 (racemic) [Example F-347] | < 3 µM | < 3 µM |  |  |
| O=C(O)CC[C@@H](CC(=O)Nc1ccc(F)cc1Cl)c1noc(-c2cc(C3CCCC3)on2)c1C1CC1 [Example E-60] | < 3 µM | < 3 µM |  |  |
| CNC(=O)C(C)(C)CCc1nnc(CCC(=O)Nc2cccc(Cl)c2C)n1C1CC1 [Example F-231] | > 3 µM | > 3 µM |  |  |
| Cc1c(Cl)cccc1NC(=O)[C@H]1CN(C(=O)CO)C[C@@H]1c1nnc(CCC(C)C)n1C1CC1 (racemic) [Example F-146] | > 3 µM | < 3 µM |  |  |
| CCOC(=O)CCc1nnc(CCC(=O)Nc2cccc(Cl)c2C)n1C1CC1 [Example F-183] | > 3 µM | > 3 µM |  |  |
| CCn1c(CCC(=O)Nc2cc(C)cc(C)c2)nnc1CCC1CCCCC1 [Example F-38] | < 3 µM | > 3 µM |  |  |
| C=C1C[C@H](C(=O)Nc2ccc(C)cc2C)[C@@H](c2nnc([C@H]3C[C@@H](CC(C)C)C3)n2C2CC2)C1 (racemic) [Example F-517] |  |  | < 3 µM | < 3 µM |
| CC(=O)N1C[C@H](C(=O)Nc2ccc(C)cc2C)[C@@H](c2nnc(C3CN(S(=O)(=O)C(C)C)C3)n2C2CC2)C1 (racemic) [Example F-418] | > 3 µM | > 3 µM |  |  |
| Cc1c(Cl)cccc1NC(=O)CCc1nnc(CCCC(C)(C)C)n1C1CC1 [Example F-181] | < 3 µM | < 3 µM |  |  |
| Cc1cccc(CNC(=O)CCc2nnc(CCC(C)C)n2C2CC2)c1C [Example F-118] | > 3 µM | > 3 µM |  |  |
| Cc1ccc(NC(=O)C[C@@H](c2nnc([C@H]3C[C@@H](CC(C)C)C3)n2C2CC2)N(C)C(C)C)c(C)c1 [Example F-537] |  |  | < 3 µM | < 3 µM |
| CCn1c(CCC(=O)NC2CCCCC2)nnc1C1Cc2ccccc2C1 [Example F-21] | > 3 µM | > 3 µM |  |  |
| Cc1cnccc1CNC(=O)CCc1nnc(CCC(C)C)n1C1CC1 [Example F-111] | > 3 µM | > 3 µM |  |  |
